US11845751B2, “Triazolotriazine derivatives as A2A receptor antagonists” (ZHEJIANG VIMGREEN PHARMACEUTICALS, LTD., priority 2018, dated 2023)

target: T1, A2AR (hADORA2A-HEK293 cells) (Homo sapiens, UniProt P29274); experiment: functional cAMP production assay: NECA stimulation of cAMP production and its inhibition by A2AR antagonists; type: cell-based; conditions: A2AR-expressing HEK293 cells (hADORA2A-HEK293); NECA at EC80; TR-FRET cAMP readout; read-out: A2AR Potency (IC50, inhibition of NECA-stimulated cAMP production)
T1 construct: expressed in transfected cells; host or cells: HEK293 (hADORA2A-HEK293)
Procedure: The antagonistic activities of the triazolotriazine derivatives of the present invention were measured in a functional cAMP production assay. The assay consists of NECA stimulation of cAMP production and its inhibition by A2AR antagonists in A2AR-expressing HEK293 cells (hADORA2A-HEK293). All cells were cultured in complete medium at 37° C. in 5% CO2. The cells were detached with pancreatin and collected at 200 g for 5 min. After resuspending the cells in fresh complete medium, the cell viability is counted using the trypan blue exclusion method. […] After the cells were diluted with Hank's buffered saline solution containing HEPES (5 mM), BSA stabilizer (0.1%) and […] Rolipram (10 μM), cells were loaded into white opaque 384-well plates (˜500 cells/well, 10 μl/well) and incubated with test compound at a suitable concentration range (11 concentrations) for 20 min at room temperature. Then the A2A receptor agonist NECA (final concentration=EC80, which was determined in the same experiment slightly earlier) was added to the sample and the mixture was incubated again for 30 min at 37° C. […] The inhibition rate (%) was calculated according to the following formula. The IC50 values were calculated from concentration-inhibition (%) curves after log transformation.

T1 sequence (P29274 whole entry): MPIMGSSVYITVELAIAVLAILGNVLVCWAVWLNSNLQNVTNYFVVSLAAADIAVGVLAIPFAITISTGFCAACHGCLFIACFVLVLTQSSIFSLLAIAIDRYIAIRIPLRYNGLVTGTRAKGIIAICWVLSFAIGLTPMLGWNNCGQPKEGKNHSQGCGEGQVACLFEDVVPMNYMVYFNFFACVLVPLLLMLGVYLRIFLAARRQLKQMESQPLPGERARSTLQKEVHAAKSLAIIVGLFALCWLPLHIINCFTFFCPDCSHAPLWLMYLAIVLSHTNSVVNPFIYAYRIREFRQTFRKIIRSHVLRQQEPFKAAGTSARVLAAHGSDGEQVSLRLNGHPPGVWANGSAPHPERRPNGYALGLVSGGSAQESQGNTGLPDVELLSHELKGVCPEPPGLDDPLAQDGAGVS

`CN(C)[C@H]1CCN(CCOc2ccc(CCNc3nc(N)n4nc(-c5ccco5)nc4n3)cc2)C1` [Example 154, (S)-N5-(4-(2-(3-(Dimethylamino)pyrrolidin-1-yl)ethoxy)phenethyl)-2-(furan-2-yl)-[1,2,4]triazolo[1,5-a][1,3,5]triazine-5,7-diamine] was tested. Which IC50 did it give?
The IC50 was 25.3 nM.

`CN(C)C1CN(CCOc2ccc(CCNc3nc(N)n4nc(-c5ccco5)nc4n3)cc2)C1` [Example 162, N5-(4-(2-(3-(Dimethylamino)azetidin-1-yl)ethoxy)phenethyl)-2-(furan-2-yl)-[1,2,4]triazolo[1,5-a][1,3,5]triazine-5,7-diamine] was tested. Which IC50 did it give?
Its IC50 is 17.5 nM.

How did the IC50 turn out when `Nc1nc(NCCc2ccc(OCC(F)(F)F)cc2)nc2nc(-c3ccco3)nn12` [Example 207, N5-(4-(2,2,2-Trifluoroethoxy)phenethyl)-2-(furan-2-yl)-[1,2,4]triazolo[1,5-a][1,3,5]triazine-5,7-diamine] was run?
Its IC50 is 8.96 nM.

`CN(C)[C@@H]1CCN(CCOc2ccc(CCNc3nc(N)n4nc(-c5ccco5)nc4n3)cc2)C1` [Example 214, N5-((R)-4-(2-(3-(Dimethylamino)pyrrolidin-1-yl)ethoxy)phenethyl)-2-(furan-2-yl)-[1,2,4]triazolo[1,5-a][1,3,5]triazine-5,7-diamine] was tested. Which IC50 did it give?
Its IC50 is 35.2 nM.

`Nc1nc(NCCc2ccc(NC(=O)CCN3CCCC3)cc2)nc2nc(-c3ccco3)nn12` [Example 226, N-(4-(2-((7-Amino-2-(furan-2-yl)-[1,2,4]triazolo[1,5-a][1,3,5]triazin-5-yl)amino)ethyl)-phenyl)-3-(pyrrolidin-1-yl)propanamide] was tested. Which IC50 did it give?
Its IC50 is 20 nM.

With `CN1CCN(CCC(=O)Nc2ccc(CCNc3nc(N)n4nc(-c5ccco5)nc4n3)cc2)CC1` [Example 229, N-(4-(2-((7-Amino-2-(furan-2-yl)-[1,2,4]triazolo[1,5-a][1,3,5]triazin-5-yl)amino)ethyl)-phenyl)-3-(4-methylpiperazin-1-yl)propanamide] as the compound, how does the IC50 read?
Its IC50 is 25.3 nM.

Which IC50 does the source give for `CN1CCC(C(=O)Nc2ccc(CCNc3nc(N)n4nc(-c5ccco5)nc4n3)cc2)CC1` [Example 241, N-(4-(2-((7-Amino-2-(furan-2-yl)-[1,2,4]triazolo[1,5-a][1,3,5]triazin-5-yl)amino)ethyl)-phenyl)-1-methylpiperidine-4-carboxamide] here?
Its IC50 is 11.2 nM.

How did the IC50 turn out when `Nc1nc(NCCc2ccc(OCCOCCF)cc2)nc2nc(-c3ccco3)nn12` [Example 245, N5-(4-(2-(2-Fluoroethoxy)ethoxy)phenethyl)-2-(furan-2-yl)-[1,2,4]triazolo[1,5-a][1,3,5]triazine-5,7-diamine] was run?
Its IC50 is 10.1 nM.

For `CN(C)CCNc1ccc(CCNc2nc(N)n3nc(-c4ccco4)nc3n2)cc1` [Example 254, N5-(4-((2-(Dimethylamino)ethyl)amino)phenethyl)-2-(furan-2-yl)-[1,2,4]triazolo[1,5-a][1,3,5]triazine-5,7-diamine], which IC50 is on record?
The IC50 was 19.6 nM.

`Nc1nc(NCCc2ccc(NC(=O)Cc3ccncc3)cc2)nc2nc(-c3ccco3)nn12` [Example 276, N-(4-(2-((7-Amino-2-(furan-2-yl)-[1,2,4]triazolo[1,5-a][1,3,5]triazin-5-yl)amino)ethyl)-phenyl)-2-(pyridin-4-yl)acetamide] was tested. Which IC50 did it give?
The IC50 was 17.5 nM.

`CN(CCOc1ccc(CCNc2nc(N)n3nc(-c4ccco4)nc3n2)cc1)Cc1cccnc1` [Example 284, 2-(Furan-2-yl)-N5-(4-(2-(methyl(pyridin-3-ylmethyl)amino)ethoxy)phenethyl)-[1,2,4]triazolo[1,5-a][1,3,5]triazine-5,7-diamine] was tested. Which IC50 did it give?
The IC50 was 32.3 nM.

How did the IC50 turn out when `CN1CCCN(CCOc2ccc(CCNc3nc(N)n4nc(-c5ccco5)nc4n3)cc2)CC1` [Example 286, 2-(Furan-2-yl)-N5-(4-(2-(4-methyl-1,4-diazepan-1-yl)ethoxy)phenethyl)-[1,2,4]triazolo[1,5-a][1,3,5]triazine-5,7-diamine] was run?
Its IC50 is 33 nM.

Which IC50 does the source give for `Nc1nc(NCCc2ccccn2)nc2nc(-c3ccco3)nn12` [Example 302, 2-(Furan-2-yl)-N5-(2-(pyridin-2-yl)ethyl)-[1,2,4]triazolo[1,5-a][1,3,5]triazine-5,7-diamine] here?
Its IC50 is 12.7 nM.

`CN(C)Cc1ccc(CCNc2nc(N)n3nc(-c4ccco4)nc3n2)cc1` [Example 306, N5-(4-((Dimethylamino)methyl)phenethyl)-2-(furan-2-yl)-[1,2,4]triazolo[1,5-a][1,3,5]triazine-5,7-diamine] was tested. Which IC50 did it give?
The IC50 was 163 nM.

For `Nc1nc(NCCc2ccc(OCCN3CC[C@@H](F)C3)cc2)nc2nc(-c3ccco3)nn12` [Example 309, (R)-N5-(4-(2-(3-Fluoropyrrolidin-1-yl)ethoxy)phenethyl)-2-(furan-2-yl)-[1,2,4]triazolo[1,5-a][1,3,5]triazine-5,7-diamine], which IC50 is on record?
The IC50 was 30.4 nM.

With `Nc1nc(NCCc2ccc(NC(=O)CCN3CCC3)cc2)nc2nc(-c3ccco3)nn12` [Example 313, N-(4-(2-((7-Amino-2-(furan-2-yl)-[1,2,4]triazolo[1,5-a][1,3,5]triazin-5-yl)amino)ethyl)-phenyl)-3-(azetidin-1-yl)propanamide] as the compound, how does the IC50 read?
Its IC50 is 13.8 nM.

Which IC50 does the source give for `Nc1nc(NCCc2ccc(OCCOCC(F)(F)F)cc2)nc2nc(-c3ccco3)nn12` [Example 314, 2-(Furan-2-yl)-N5-(4-(2-(2,2,2-trifluoroethoxy)ethoxy)phenethyl)-[1,2,4]triazolo[1,5-a][1,3,5]triazine-5,7-diamine] here?
The IC50 was 15.4 nM.

For `Nc1nc(NCCc2ccc(NCCN3CCOCC3)cc2)nc2nc(-c3ccco3)nn12` [Example 318, 2-(Furan-2-yl)-N5-(4-((2-morpholinoethyl)amino)phenethyl)-[1,2,4]triazolo[1,5-a][1,3,5]triazine-5,7-diamine], which IC50 is on record?
The IC50 was 11.1 nM.

For `Nc1nc(NCCc2ccc(NC(=O)CN3CCOCC3)cc2)nc2nc(-c3ccco3)nn12` [Example 320, N-(4-(2-((7-Amino-2-(furan-2-yl)-[1,2,4]triazolo[1,5-a][1,3,5]triazin-5-yl)amino)ethyl)-phenyl)-2-morpholinoacetamide], which IC50 is on record?
The IC50 was 11.5 nM.

With `CN1CCN(CC(=O)Nc2ccc(CCNc3nc(N)n4nc(-c5ccco5)nc4n3)cc2)CC1` [Example 321, N-(4-(2-((7-Amino-2-(furan-2-yl)-[1,2,4]triazolo[1,5-a][1,3,5]triazin-5-yl)amino)ethyl)-phenyl)-2-(4-methylpiperazin-1-yl)acetamide] as the compound, how does the IC50 read?
The IC50 was 40.7 nM.

How did the IC50 turn out when `CC(C)(C)C(=O)Nc1ccc(CCNc2nc(N)n3nc(-c4ccco4)nc3n2)cc1` [Example 324, N-(4-(2-((7-Amino-2-(furan-2-yl)-[1,2,4]triazolo[1,5-a][1,3,5]triazin-5-yl)amino)ethyl)-phenyl)pivalamide] was run?
Its IC50 is 10.8 nM.

With `CC(C)(CO)C(=O)Nc1ccc(CCNc2nc(N)n3nc(-c4ccco4)nc3n2)cc1` [Example 325, N-(4-(2-((7-Amino-2-(furan-2-yl)-[1,2,4]triazolo[1,5-a][1,3,5]triazin-5-yl)amino)ethyl)-phenyl)-3-hydroxy-2,2-dimethylpropanamide] as the compound, how does the IC50 read?
The IC50 was 11.9 nM.

How did the IC50 turn out when `CC(C)(O)C(=O)Nc1ccc(CCNc2nc(N)n3nc(-c4ccco4)nc3n2)cc1` [Example 326, N-(4-(2-((7-Amino-2-(furan-2-yl)-[1,2,4]triazolo[1,5-a][1,3,5]triazin-5-yl)amino)ethyl)-phenyl)-2-hydroxy-2-methylpropanamide] was run?
Its IC50 is 10.7 nM.
